Data published in ChEMBL document CHEMBL1201862, “PubChem BioAssay data set” (2004).
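Five concentrations, 48 hours, 96-well plates. GI50: concentration for 50% inhibition of growth.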 The source made the active and inactive calls. Cut-off read from the data, not from the text of the source: active = GI50 up to about 1.1 µM and inactive = higher.

Experiments:
Assay in all cases: DTP human tumour cell line panel, 48 h
KM12 = system: KM12
TK-10 = system: TK-10
LOX IMVI = system: LOX IMVI
HCT-15 = system: HCT-15
OVCAR-8 = system: OVCAR-8
SK-OV-3 = system: SK-OV-3
ACHN = system: ACHN
SF-295 = system: SF-295
MDA-N = system: MDA-N
EKVX = system: EKVX
OVCAR-3 = system: OVCAR-3
SK-MEL-5 = system: SK-MEL-5
OVCAR-4 = system: OVCAR-4
K562 = system: K562
DU-145 = system: DU-145
HT-29 = system: HT-29
MOLT-4 = system: MOLT-4
SR = system: SR
CCRF-CEM = system: CCRF-CEM
HL-60 = system: HL-60

Structure (SMILES)	GI50 (KM12)	GI50 (TK-10)	GI50 (LOX IMVI)	GI50 (HCT-15)	GI50 (OVCAR-8)	GI50 (SK-OV-3)	GI50 (ACHN)	GI50 (SF-295)	GI50 (MDA-N)	GI50 (EKVX)	GI50 (OVCAR-3)	GI50 (SK-MEL-5)	GI50 (OVCAR-4)	GI50 (K562)	GI50 (DU-145)	GI50 (HT-29)	GI50 (MOLT-4)	GI50 (SR)	GI50 (CCRF-CEM)	GI50 (HL-60)
CN1CCN(c2ccncc2S(=O)(=O)N2CCN(C)CC2)CC1	> 100 µM (inactive)	> 100 µM (inactive)	> 100 µM (inactive)	> 100 µM	> 100 µM (inactive)	> 100 µM (inactive)	> 100 µM (inactive)	> 100 µM (inactive)	> 100 µM (inactive)	> 100 µM (inactive)	> 100 µM (inactive)	> 100 µM (inactive)	> 100 µM (inactive)	> 100 µM (inactive)	> 100 µM (inactive)	> 100 µM (inactive)	–	–	–	–
Oc1nc(S)nc2c1CN(CCCN1CCOCC1)CN2	28.2 µM (inactive)	56.6 µM (inactive)	24.7 µM (inactive)	32 µM	31 µM (inactive)	–	29.2 µM (inactive)	28.2 µM (inactive)	43.6 µM (inactive)	> 100 µM (inactive)	38.5 µM (inactive)	31 µM (inactive)	38.5 µM (inactive)	67.9 µM (inactive)	34.2 µM (inactive)	35.9 µM (inactive)	28.2 µM (inactive)	28.4 µM (inactive)	–	–
COC(=O)c1ccc2c(c1)sc1nc(-c3ccc(OC)cc3)cn12	56.1 µM (inactive)	> 100 µM (inactive)	> 100 µM (inactive)	> 100 µM	91.4 µM (inactive)	> 100 µM (inactive)	> 100 µM (inactive)	> 100 µM (inactive)	78.9 µM (inactive)	> 100 µM (inactive)	> 100 µM (inactive)	21.1 µM (inactive)	> 100 µM (inactive)	38.2 µM (inactive)	> 100 µM (inactive)	83.4 µM (inactive)	> 100 µM (inactive)	–	39.9 µM (inactive)	25.1 µM (inactive)
COc1ccc(/C=C2\N=C(SC)N(CN3CCCCC3)C2=O)cc1	> 100 µM (inactive)	> 100 µM (inactive)	> 100 µM (inactive)	> 100 µM	> 100 µM (inactive)	> 100 µM (inactive)	> 100 µM (inactive)	> 100 µM (inactive)	> 100 µM (inactive)	> 100 µM (inactive)	> 100 µM (inactive)	> 100 µM (inactive)	> 100 µM (inactive)	> 100 µM (inactive)	> 100 µM (inactive)	> 100 µM (inactive)	> 100 µM (inactive)	> 100 µM (inactive)	–	–
c1cc(-c2ccc(-c3ccc(-c4ccc(-c5cccc6nsnc56)[nH]4)c4nsnc34)[nH]2)c2nsnc2c1	> 100 µM (inactive)	> 100 µM (inactive)	> 100 µM (inactive)	> 100 µM	> 100 µM (inactive)	> 100 µM (inactive)	> 100 µM (inactive)	> 100 µM (inactive)	> 100 µM (inactive)	> 100 µM (inactive)	> 100 µM (inactive)	> 100 µM (inactive)	> 100 µM (inactive)	> 100 µM (inactive)	> 100 µM (inactive)	> 100 µM (inactive)	> 100 µM (inactive)	–	> 100 µM (inactive)	1.53 µM (inactive)
CCOC(=O)Cc1c(C)c2cc(C(=O)c3ccccc3)c(O)cc2oc1=O	–	43.4 µM (inactive)	30.3 µM (inactive)	29.4 µM	34.1 µM (inactive)	–	29.3 µM (inactive)	34.8 µM (inactive)	33.3 µM (inactive)	25.5 µM (inactive)	17.8 µM (inactive)	17.6 µM (inactive)	31.8 µM (inactive)	24.7 µM (inactive)	30.8 µM (inactive)	39.2 µM (inactive)	36.1 µM (inactive)	–	31.1 µM (inactive)	24.4 µM (inactive)
C=C(C)C1Cc2cc(C(C)=O)ccc2O1 (stereo not given)	> 100 µM (inactive)	> 100 µM (inactive)	> 100 µM (inactive)	> 100 µM	> 100 µM (inactive)	> 100 µM (inactive)	> 100 µM (inactive)	> 100 µM (inactive)	> 100 µM (inactive)	> 100 µM (inactive)	> 100 µM (inactive)	> 100 µM (inactive)	> 100 µM (inactive)	> 100 µM (inactive)	> 100 µM (inactive)	> 100 µM (inactive)	> 100 µM (inactive)	–	> 100 µM (inactive)	> 100 µM (inactive)
O=[N+]([O-])/C(C(Cl)=C(Cl)Cl)=C(\Nc1cccc2ccccc12)Sc1ccccc1	13.2 µM (inactive)	–	–	15.7 µM	15.3 µM (inactive)	26.1 µM (inactive)	13.9 µM (inactive)	15.2 µM (inactive)	16.5 µM (inactive)	11.4 µM (inactive)	7.31 µM (inactive)	–	10.4 µM (inactive)	57.3 µM (inactive)	13.2 µM (inactive)	19.5 µM (inactive)	> 100 µM (inactive)	–	8.55 µM (inactive)	–
Nc1c(C(=O)O)c2ccc([N+](=O)[O-])cc2c(=O)n1-c1nc2ccccc2s1	> 100 µM (inactive)	–	> 100 µM (inactive)	> 100 µM	> 100 µM (inactive)	> 100 µM (inactive)	> 100 µM (inactive)	> 100 µM (inactive)	> 100 µM (inactive)	> 100 µM (inactive)	> 100 µM (inactive)	> 100 µM (inactive)	> 100 µM (inactive)	> 100 µM (inactive)	> 100 µM (inactive)	> 100 µM (inactive)	> 100 µM (inactive)	> 100 µM (inactive)	> 100 µM (inactive)	–
CCOC(=O)C1=CC(C)(C(=O)OCC)Nc2c(nc(SC)[nH]c2=O)N1 (stereo not given)	> 10 µM (inactive)	> 10 µM (inactive)	> 10 µM (inactive)	> 10 µM	> 10 µM (inactive)	> 10 µM (inactive)	> 10 µM (inactive)	> 10 µM (inactive)	> 10 µM (inactive)	> 10 µM (inactive)	> 10 µM (inactive)	> 10 µM (inactive)	> 10 µM (inactive)	> 10 µM (inactive)	> 10 µM (inactive)	> 10 µM (inactive)	> 10 µM (inactive)	–	> 10 µM (inactive)	–
O=C1NC(=S)NC(=O)C1C(c1ccc([N+](=O)[O-])cc1)C1C(=O)NC(=S)NC1=O.c1ccncc1	> 100 µM (inactive)	> 100 µM (inactive)	> 100 µM (inactive)	> 100 µM	> 100 µM (inactive)	–	> 100 µM (inactive)	> 100 µM (inactive)	> 100 µM (inactive)	> 100 µM (inactive)	> 100 µM (inactive)	> 100 µM (inactive)	> 100 µM (inactive)	> 100 µM (inactive)	> 100 µM (inactive)	> 100 µM (inactive)	> 100 µM (inactive)	–	> 100 µM (inactive)	> 100 µM (inactive)
COc1cc(O)c2c(=O)c(OC)c(-c3ccc4c(c3)OCO4)oc2c1OC	> 50 µM (inactive)	> 50 µM (inactive)	> 50 µM (inactive)	> 50 µM	19.1 µM (inactive)	21.7 µM (inactive)	> 50 µM (inactive)	29 µM (inactive)	> 50 µM (inactive)	39 µM (inactive)	> 50 µM (inactive)	22.5 µM (inactive)	> 50 µM (inactive)	> 50 µM (inactive)	> 50 µM (inactive)	> 50 µM (inactive)	> 50 µM (inactive)	–	> 50 µM (inactive)	> 50 µM (inactive)
NC(CCCCNC(=O)OCc1ccccc1)C(=O)NC(CCCCNC(=O)OCc1ccccc1)C(=O)ON1C(=O)CCC1=O (stereo not given)	> 100 µM (inactive)	> 100 µM (inactive)	–	> 100 µM	> 100 µM (inactive)	–	> 100 µM (inactive)	–	> 100 µM (inactive)	> 100 µM (inactive)	–	> 100 µM (inactive)	–	> 100 µM (inactive)	–	> 100 µM (inactive)	> 100 µM (inactive)	> 100 µM (inactive)	> 100 µM (inactive)	> 100 µM (inactive)
Nc1nonc1-c1noc(-c2nonc2N)[n+]1[O-]	58.9 µM (inactive)	43 µM (inactive)	63.2 µM (inactive)	19.7 µM	–	> 100 µM (inactive)	33.8 µM (inactive)	> 100 µM (inactive)	69.7 µM (inactive)	30.8 µM (inactive)	–	32.1 µM (inactive)	> 100 µM (inactive)	41 µM (inactive)	> 100 µM (inactive)	16 µM (inactive)	54.6 µM (inactive)	93.8 µM (inactive)	0.366 µM (active)	–
Cc1ccccc1NC(=N)Nc1ccccc1C	> 100 µM (inactive)	> 100 µM (inactive)	> 100 µM (inactive)	> 100 µM	> 100 µM (inactive)	> 100 µM (inactive)	> 100 µM (inactive)	> 100 µM (inactive)	> 100 µM (inactive)	> 100 µM (inactive)	> 100 µM (inactive)	> 100 µM (inactive)	> 100 µM (inactive)	> 100 µM (inactive)	> 100 µM (inactive)	> 100 µM (inactive)	> 100 µM (inactive)	–	> 100 µM (inactive)	> 100 µM (inactive)
COc1ccc2c(c1OC)C(=O)O[C@@H]2[C@H]1c2c(cc3c(c2OC)OCO3)CCN1C [NOSCAPINE]	45.8 µM (inactive)	–	37.2 µM (inactive)	43.4 µM	63.5 µM (inactive)	73.1 µM (inactive)	62.5 µM (inactive)	30.3 µM (inactive)	23.1 µM (inactive)	–	16.5 µM (inactive)	48.3 µM (inactive)	> 100 µM (inactive)	33 µM (inactive)	> 100 µM (inactive)	40 µM (inactive)	23.5 µM (inactive)	38.8 µM (inactive)	12.9 µM (inactive)	–
